Holding throughout (format): biochemical
The target of one experiment is T1, Nox2 (hNox2) (Homo sapiens, UniProt P04839).
T1 construct: gene CYBB; membranes from transgenic Drosophila (Duox knockdown) over-expressing human Nox2
T1 sequence (P04839 2-570): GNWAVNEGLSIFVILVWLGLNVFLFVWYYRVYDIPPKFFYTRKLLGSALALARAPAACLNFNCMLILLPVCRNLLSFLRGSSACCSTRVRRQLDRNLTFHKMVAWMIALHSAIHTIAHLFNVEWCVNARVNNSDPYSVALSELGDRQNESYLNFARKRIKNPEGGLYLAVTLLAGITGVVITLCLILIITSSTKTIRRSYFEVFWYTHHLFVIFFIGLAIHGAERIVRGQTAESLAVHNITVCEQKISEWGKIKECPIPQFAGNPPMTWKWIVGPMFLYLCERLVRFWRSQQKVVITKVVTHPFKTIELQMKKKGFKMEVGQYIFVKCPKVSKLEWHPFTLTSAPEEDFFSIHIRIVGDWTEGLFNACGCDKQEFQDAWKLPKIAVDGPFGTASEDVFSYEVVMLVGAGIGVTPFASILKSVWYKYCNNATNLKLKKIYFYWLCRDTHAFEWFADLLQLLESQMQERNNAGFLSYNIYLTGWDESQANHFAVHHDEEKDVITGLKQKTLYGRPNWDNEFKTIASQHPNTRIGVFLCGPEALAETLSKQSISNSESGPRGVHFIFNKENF
Briefly: lucigenin chemiluminescence ROS assay in Drosophila membranes expressing hNox2.

A further experiment addresses T2, Nox4 (hNox4) (Homo sapiens, UniProt Q9NPH5).
T2 construct: membranes from transgenic Drosophila (Duox knockdown) over-expressing human Nox4
T2 sequence (Q9NPH5 1-578): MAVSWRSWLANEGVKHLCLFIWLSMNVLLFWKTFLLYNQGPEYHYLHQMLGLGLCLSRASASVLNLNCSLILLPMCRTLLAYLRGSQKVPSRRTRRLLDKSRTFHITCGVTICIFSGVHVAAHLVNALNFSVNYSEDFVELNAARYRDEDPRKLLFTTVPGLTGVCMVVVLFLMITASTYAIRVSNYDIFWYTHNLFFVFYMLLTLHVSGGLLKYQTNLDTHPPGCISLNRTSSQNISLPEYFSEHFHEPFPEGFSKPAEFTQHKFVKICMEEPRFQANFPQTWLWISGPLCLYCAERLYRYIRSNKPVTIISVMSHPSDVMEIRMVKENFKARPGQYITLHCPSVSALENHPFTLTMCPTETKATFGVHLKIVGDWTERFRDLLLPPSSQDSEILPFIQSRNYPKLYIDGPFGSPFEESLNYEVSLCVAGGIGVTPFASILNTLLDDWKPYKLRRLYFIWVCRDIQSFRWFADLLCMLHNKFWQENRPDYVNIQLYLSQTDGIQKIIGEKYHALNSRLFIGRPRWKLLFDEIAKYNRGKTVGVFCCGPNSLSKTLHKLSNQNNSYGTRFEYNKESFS
The experiment can be described thus: lucigenin chemiluminescence ROS assay in Drosophila membranes expressing hNox4.

The next experiment concerns the target T3, Nox1 (hNox1) (Homo sapiens, UniProt Q9Y5S8).
T3 construct: membranes from transgenic Drosophila (Duox knockdown) over-expressing human Nox1
T3 sequence (Q9Y5S8 1-564): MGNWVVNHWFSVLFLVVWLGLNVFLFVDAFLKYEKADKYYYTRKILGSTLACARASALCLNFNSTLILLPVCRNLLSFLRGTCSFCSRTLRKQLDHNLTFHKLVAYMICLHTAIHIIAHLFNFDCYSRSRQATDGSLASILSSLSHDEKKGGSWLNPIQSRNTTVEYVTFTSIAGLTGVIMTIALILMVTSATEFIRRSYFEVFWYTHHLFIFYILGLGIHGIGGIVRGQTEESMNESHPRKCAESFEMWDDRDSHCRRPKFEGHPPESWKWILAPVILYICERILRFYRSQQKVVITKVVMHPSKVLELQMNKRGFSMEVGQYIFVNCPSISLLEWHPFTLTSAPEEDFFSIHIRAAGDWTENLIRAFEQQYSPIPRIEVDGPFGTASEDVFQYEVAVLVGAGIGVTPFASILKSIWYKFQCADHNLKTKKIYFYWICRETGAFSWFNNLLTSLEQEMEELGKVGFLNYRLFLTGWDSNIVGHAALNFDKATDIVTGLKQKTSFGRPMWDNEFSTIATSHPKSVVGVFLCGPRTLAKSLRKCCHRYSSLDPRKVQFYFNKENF
The experiment can be described thus: lucigenin chemiluminescence ROS assay in Drosophila membranes expressing hNox1.

The target in another experiment is T4, Duox1 (hDuox1) (Homo sapiens, UniProt Q9NRD9).
T4 construct: membranes from transgenic Drosophila (Duox knockdown) over-expressing human Duox1
T4 sequence (Q9NRD9 22-1551): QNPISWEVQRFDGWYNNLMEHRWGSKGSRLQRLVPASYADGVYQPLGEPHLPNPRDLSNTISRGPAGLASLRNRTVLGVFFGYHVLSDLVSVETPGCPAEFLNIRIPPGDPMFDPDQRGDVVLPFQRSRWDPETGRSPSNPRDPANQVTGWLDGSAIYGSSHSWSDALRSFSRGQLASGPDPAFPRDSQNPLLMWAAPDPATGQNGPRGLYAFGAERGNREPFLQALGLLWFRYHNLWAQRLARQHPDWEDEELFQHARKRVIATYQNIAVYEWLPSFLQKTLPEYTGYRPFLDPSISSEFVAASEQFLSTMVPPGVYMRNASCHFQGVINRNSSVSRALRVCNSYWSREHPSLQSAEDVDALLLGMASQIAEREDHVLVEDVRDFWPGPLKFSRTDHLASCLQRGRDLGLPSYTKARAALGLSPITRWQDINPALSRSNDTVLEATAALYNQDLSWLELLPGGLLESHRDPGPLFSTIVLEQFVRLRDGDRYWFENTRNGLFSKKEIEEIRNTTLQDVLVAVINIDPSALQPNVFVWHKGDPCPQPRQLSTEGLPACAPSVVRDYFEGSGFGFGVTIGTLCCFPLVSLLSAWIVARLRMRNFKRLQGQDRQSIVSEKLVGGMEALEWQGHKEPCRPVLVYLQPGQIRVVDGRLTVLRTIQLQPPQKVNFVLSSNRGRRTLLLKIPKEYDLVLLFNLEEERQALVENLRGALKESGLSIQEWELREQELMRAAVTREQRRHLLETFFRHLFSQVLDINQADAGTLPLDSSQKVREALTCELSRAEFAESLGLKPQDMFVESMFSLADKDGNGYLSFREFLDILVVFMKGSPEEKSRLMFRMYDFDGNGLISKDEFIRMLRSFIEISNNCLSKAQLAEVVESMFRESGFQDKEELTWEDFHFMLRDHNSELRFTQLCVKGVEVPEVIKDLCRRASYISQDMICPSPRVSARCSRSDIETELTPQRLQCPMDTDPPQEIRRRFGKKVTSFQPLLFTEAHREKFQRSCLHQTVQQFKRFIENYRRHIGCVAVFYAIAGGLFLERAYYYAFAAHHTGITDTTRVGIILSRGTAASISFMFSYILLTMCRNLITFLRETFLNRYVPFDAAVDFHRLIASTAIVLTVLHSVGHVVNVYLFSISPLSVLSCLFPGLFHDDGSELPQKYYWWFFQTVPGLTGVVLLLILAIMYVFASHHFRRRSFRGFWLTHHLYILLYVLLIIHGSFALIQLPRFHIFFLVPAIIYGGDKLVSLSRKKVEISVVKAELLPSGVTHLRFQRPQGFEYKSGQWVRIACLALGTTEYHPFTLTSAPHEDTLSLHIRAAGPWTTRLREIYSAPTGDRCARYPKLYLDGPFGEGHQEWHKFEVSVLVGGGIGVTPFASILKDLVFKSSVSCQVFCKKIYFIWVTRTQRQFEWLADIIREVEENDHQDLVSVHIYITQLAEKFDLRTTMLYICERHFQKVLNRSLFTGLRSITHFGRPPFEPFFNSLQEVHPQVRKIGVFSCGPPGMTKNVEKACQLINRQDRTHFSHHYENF
The experiment can be described thus: lucigenin chemiluminescence ROS assay in Drosophila membranes expressing hDuox1.

One may read the IC50 as the concentration that gives 50% inhibition.

As for `C=C[C@H](OC(C)=O)c1ccc(OC(C)=O)cc1` [compound 26, 1′S-1′-acetoxychavicol acetate], the IC50 on Nox2 (hNox2) came out at 42.3 µM; against Nox4 (hNox4), 31.3 µM; at Nox1 (hNox1) it was 32.7 µM; at Duox1 (hDuox1), 30.8 µM.

The values above are taken from article PMC12114461, “A Natural Inhibitor, 1′S-1′-Acetoxychavicol Acetate, Against Testosterone-Induced Alopecia via NADPH Oxidase Regulation” (Molecules, 2025).
